Results reported in PMC8815882, “Screening the pandemic response box identified benzimidazole carbamates, Olorofim and ravuconazole as promising drug candidates for the treatment of eumycetoma” (PLoS Neglected Tropical Diseases, 2022).
Read-outs that look alike come from different tables or passages of the source.

Tested on: M. mycetomatis genome strain MM55
Assay: CLSI M38-A2 based in vitro susceptibility screening (XTT or resazurin), growth at fixed concentration
Format: cell-based, Madurella mycetomatis
Conditions: Madurella mycetomatis; for Percent fungal survival at 100 µM: read-out: Percentage survival at 100um, 100 uM A (second replicate column)
[1] = mean of replicates, read-out: Percentage survival at 25um, 25 uM mean
[2] = replicate A, read-out: Percentage survival at 25um, 25 um A
[3] = replicate B, read-out: Percentage survival at 25um, 25 uM B
[4] = replicate C, read-out: Percentage survival at 25um, 25 uM C
[5] = mean of replicates, read-out: Percentage survival at 100um, 100 uM mean
[6] = replicate 1, read-out: Percentage survival at 100um, 100 uM A
[7] = replicate 2, read-out: Percentage survival at 100um, 100 uM A
[8] = replicate 3, read-out: Percentage survival at 100um, 100 uM A
[9] = mean of replicates, MM55, read-out: Percentage survival at 25um, 25 uM mean
[10] = replicate A, MM55, read-out: Percentage survival at 25um, 25 um A
[11] = replicate B, MM55, read-out: Percentage survival at 25um, 25 uM B
[12] = replicate C, MM55, read-out: Percentage survival at 25um, 25 uM C
[13] = mean of replicates, MM55, read-out: Percentage survival at 100um, 100 uM mean
[14] = replicate 1, MM55, read-out: Percentage survival at 100um, 100 uM A
[15] = replicate 2, MM55, read-out: Percentage survival at 100um, 100 uM A
[16] = replicate 3, MM55, read-out: Percentage survival at 100um, 100 uM A
[17] = mean of three replicates, read-out: Percentage survival at 25um, 25 uM mean
[18] = mean of three replicates, read-out: Percentage survival at 100um, 100 uM mean
[19] = replicate 1, read-out: Percentage survival at 100um, 100 uM A (first replicate column)
[20] = replicate 3, read-out: Percentage survival at 100um, 100 uM A (third replicate column)
[21] = first replicate column, read-out: Percentage survival at 100um, 100 uM A
[22] = second replicate column, read-out: Percentage survival at 100um, 100 uM A
[23] = third replicate column, read-out: Percentage survival at 100um, 100 uM A

CC(C)/N=c1\cc2n(-c3ccc(Cl)cc3)c3ccccc3nc-2cc1Nc1ccc(Cl)cc1 [MMV687800]
activity at 25 µM (mean of three, M. mycetomatis MM55, read-out: Percentage survival at 25um, 25 uM mean): 71%
activity at 25 µM (replicate A, M. mycetomatis MM55, read-out: Percentage survival at 25um, 25 um A): 77.2%
activity at 25 µM (replicate B, M. mycetomatis MM55, read-out: Percentage survival at 25um, 25 uM B): 68.8%
activity at 25 µM (replicate C, M. mycetomatis MM55, read-out: Percentage survival at 25um, 25 uM C): 67.2%
activity at 100 µM (mean of three, M. mycetomatis MM55, read-out: Percentage survival at 100um, 100 uM mean): 71.4%
activity at 100 µM (replicate 1, M. mycetomatis MM55, read-out: Percentage survival at 100um, 100 uM A (first replicate column)): 65.1%
Percent fungal survival at 100 µM (replicate 2, M. mycetomatis MM55): 75.2%
activity at 100 µM (replicate 3, M. mycetomatis MM55, read-out: Percentage survival at 100um, 100 uM A (third replicate column)): 73.9%

CC[C@@H](CO)NCCN[C@@H](CC)CO [MMV687801]
activity at 25 µM [1]: 87.9%
activity at 25 µM [2]: 86.9%
activity at 25 µM [3]: 87.9%
activity at 25 µM [4]: 88.8%
activity at 100 µM [5]: 85.7%
activity at 100 µM [6]: 96.9%
activity at 100 µM [7]: 79.4%
activity at 100 µM [8]: 80.8%

O=[N+]([O-])c1cn2c(n1)OC[C@@H](OCc1ccc(OC(F)(F)F)cc1)C2 [MMV688755]
activity at 25 µM [1]: 85.3%
activity at 25 µM [2]: 91.8%
activity at 25 µM [3]: 92.4%
activity at 25 µM [4]: 71.7%
activity at 100 µM [5]: 85.9%
activity at 100 µM [6]: 75%
activity at 100 µM [7]: 105%
activity at 100 µM [8]: 77.3%

CC(=O)NC[C@H]1CN(c2ccc(N3CCSCC3)c(F)c2)C(=O)O1 [MMV688756]
activity at 25 µM [1]: 96.1%
activity at 25 µM [2]: 94.4%
activity at 25 µM [3]: 99.9%
activity at 25 µM [4]: 94.2%
activity at 100 µM [5]: 92.4%
activity at 100 µM [6]: 100%
activity at 100 µM [7]: 85.2%
activity at 100 µM [8]: 91.6%

CC(=O)Oc1ccccc1C(=O)Nc1ncc([N+](=O)[O-])s1 [MMV688991]
activity at 25 µM [9]: 103%
activity at 25 µM [10]: 90%
activity at 25 µM [11]: 88.2%
activity at 25 µM [12]: 131%
activity at 100 µM [13]: 68%
activity at 100 µM [14]: 76.1%
activity at 100 µM [15]: 57.8%
activity at 100 µM [16]: 70.1%

COc1nc2ccc(Br)cc2cc1[C@@H](c1ccccc1)[C@@](O)(CCN(C)C)c1cccc2ccccc12 [MMV689758]
activity at 25 µM [17]: 98.1%
activity at 25 µM [2]: 102%
activity at 25 µM [3]: 87.7%
activity at 25 µM [4]: 104%
activity at 100 µM [18]: 84.6%
activity at 100 µM [19]: 80.8%
Percent fungal survival at 100 µM (replicate 2): 75.9%
activity at 100 µM [20]: 97.2%

Cc1cc(CCCOc2c(C)cc(-c3noc(C(F)(F)F)n3)cc2C)on1 [MMV690467]
activity at 25 µM [9]: 115%
activity at 25 µM [10]: 152%
activity at 25 µM [11]: 84.5%
activity at 25 µM [12]: 108%
activity at 100 µM [13]: 79.3%
activity at 100 µM [14]: 70.9%
activity at 100 µM [15]: 103%
activity at 100 µM [16]: 64.3%

COc1ccccc1CN[C@H]1C2CCN(CC2)[C@H]1C(c1ccccc1)c1ccccc1 [MMV690480]
activity at 25 µM [17]: 83.2%
activity at 25 µM [2]: 61.4%
activity at 25 µM [3]: 107%
activity at 25 µM [4]: 81.2%
activity at 100 µM [21]: -1.66%
activity at 100 µM [18]: 27.7%
activity at 100 µM [22]: 2.79%
activity at 100 µM [23]: 82%

CCOCc1nc2c(N)nc3ccccc3c2n1CC(C)(C)O [MMV690547]
activity at 25 µM [17]: 98%
activity at 25 µM [2]: 95.3%
activity at 25 µM [3]: 111%
activity at 25 µM [4]: 87.7%
activity at 100 µM [18]: 90.4%
activity at 100 µM [19]: 97%
Percent fungal survival at 100 µM (replicate 2): 86.2%
activity at 100 µM [20]: 87.9%

FC(F)(F)c1cc(C(F)(F)F)c2ccc3nc(-c4nnco4)cn3c2n1 [MMV690555]
activity at 25 µM [9]: 91.6%
activity at 25 µM [10]: 100%
activity at 25 µM [11]: 96.8%
activity at 25 µM [12]: 77.9%
activity at 100 µM [13]: 81.1%
activity at 100 µM [14]: 87%
activity at 100 µM [15]: 83.1%
activity at 100 µM [16]: 73.1%

O=C(NC1CCCc2c1[nH]c1ccc(Cl)cc21)c1ccccn1 (stereo not shown) [MMV690621]
activity at 25 µM [17]: 79%
activity at 25 µM [2]: 75.2%
activity at 25 µM [3]: 91.8%
activity at 25 µM [4]: 70.2%
activity at 100 µM [21]: -4.95%
activity at 100 µM [18]: -0.446%
activity at 100 µM [22]: -2.06%
activity at 100 µM [23]: 5.67%
